Columns and labels:
Settings in all cases: 72 h
U2OS [1] = assay: relative viability EC50 (midpoint between 100% and the lowest measured viability); higher = less toxic
Calu-3 [2] = assay: as above
Caco-2 [3] = assay: as above
HepG2 [4] = assay: as above
Vero E6 [5] = assay: as above
U2OS [6] = assay: cell viability relative to DMSO; higher = less toxic
Calu-3 [7] = assay: as above
Caco-2 [8] = assay: as above
HepG2 [9] = assay: as above
Vero E6 [10] = assay: as above
U2OS [11] = assay: drug sensitivity score (DSS) for viability; higher = more toxic; extreme values may be limits of the assay
Calu-3 [12] = assay: as above
Caco-2 [13] = assay: as above
HepG2 [14] = assay: as above
Vero E6 [15] = assay: as above

CC(C)N(CC[C@H](c1ccccc1)c1cc(CO)ccc1O)C(C)C [5-hydroxymethyl-tolterodine]
relative viability EC50 (U2OS [1]): > 10 µM
relative viability EC50 (Calu-3 [2]): > 10 µM
relative viability EC50 (Caco-2 [3]): > 10 µM
relative viability EC50 (HepG2 [4]): > 10 µM
relative viability EC50 (Vero E6 [5]): > 10 µM
cell viability (U2OS [6]; 1 nM): 101%
cell viability (U2OS [6]; 10 nM): 99.1%
cell viability (U2OS [6]; 100 nM): 105%
cell viability (U2OS [6]; 1000 nM): 91.8%
cell viability (U2OS [6]; 10000 nM): 95.9%
cell viability (Calu-3 [7]; 1 nM): 104%
cell viability (Calu-3 [7]; 10 nM): 89.3%
cell viability (Calu-3 [7]; 100 nM): 96.7%
cell viability (Calu-3 [7]; 1000 nM): 98.6%
cell viability (Calu-3 [7]; 10000 nM): 99.3%
cell viability (Caco-2 [8]; 1 nM): 89%
cell viability (Caco-2 [8]; 10 nM): 87.9%
cell viability (Caco-2 [8]; 100 nM): 108%
cell viability (Caco-2 [8]; 1000 nM): 102%
cell viability (Caco-2 [8]; 10000 nM): 99.6%
cell viability (HepG2 [9]; 1 nM): 104%
cell viability (HepG2 [9]; 10 nM): 91.6%
cell viability (HepG2 [9]; 100 nM): 102%
cell viability (HepG2 [9]; 1000 nM): 96.5%
cell viability (HepG2 [9]; 10000 nM): 112%
cell viability (Vero E6 [10]; 1 nM): 95.7%
cell viability (Vero E6 [10]; 10 nM): 96.2%
cell viability (Vero E6 [10]; 100 nM): 96.6%
cell viability (Vero E6 [10]; 1000 nM): 98.2%
cell viability (Vero E6 [10]; 10000 nM): 101%
drug sensitivity score (U2OS [11]): 0
drug sensitivity score (Calu-3 [12]): 0
drug sensitivity score (Caco-2 [13]): 0
drug sensitivity score (HepG2 [14]): 0
drug sensitivity score (Vero E6 [15]): 0

O=C(O)c1ccc(N[C@@H]2O[C@H](CO)[C@@H](O)[C@H](O)[C@@H]2O)cc1 [K-MAP]
relative viability EC50 (U2OS [1]): > 10 µM
relative viability EC50 (Calu-3 [2]): > 10 µM
relative viability EC50 (Caco-2 [3]): > 10 µM
relative viability EC50 (HepG2 [4]): > 10 µM
relative viability EC50 (Vero E6 [5]): > 10 µM
cell viability (U2OS [6]; 1 nM): 99.7%
cell viability (U2OS [6]; 10 nM): 95.4%
cell viability (U2OS [6]; 100 nM): 100%
cell viability (U2OS [6]; 1000 nM): 97.7%
cell viability (U2OS [6]; 10000 nM): 100%
cell viability (Calu-3 [7]; 1 nM): 117%
cell viability (Calu-3 [7]; 10 nM): 99.5%
cell viability (Calu-3 [7]; 100 nM): 105%
cell viability (Calu-3 [7]; 1000 nM): 102%
cell viability (Calu-3 [7]; 10000 nM): 99%
cell viability (Caco-2 [8]; 1 nM): 92.7%
cell viability (Caco-2 [8]; 10 nM): 93.3%
cell viability (Caco-2 [8]; 100 nM): 89.5%
cell viability (Caco-2 [8]; 1000 nM): 91%
cell viability (Caco-2 [8]; 10000 nM): 95.8%
cell viability (HepG2 [9]; 1 nM): 90.8%
cell viability (HepG2 [9]; 10 nM): 98.1%
cell viability (HepG2 [9]; 100 nM): 95.4%
cell viability (HepG2 [9]; 1000 nM): 97.1%
cell viability (HepG2 [9]; 10000 nM): 97.5%
cell viability (Vero E6 [10]; 1 nM): 94.7%
cell viability (Vero E6 [10]; 10 nM): 96.7%
cell viability (Vero E6 [10]; 100 nM): 93.2%
cell viability (Vero E6 [10]; 1000 nM): 98.8%
cell viability (Vero E6 [10]; 10000 nM): 109%
drug sensitivity score (U2OS [11]): 0
drug sensitivity score (Calu-3 [12]): 0
drug sensitivity score (Caco-2 [13]): 0
drug sensitivity score (HepG2 [14]): 0
drug sensitivity score (Vero E6 [15]): 0

O[C@H]1CC[C@H](Nc2nc(-c3ccccc3)nc3[nH]ccc23)CC1 [SLV-320]
relative viability EC50 (U2OS [1]): > 10 µM
relative viability EC50 (Calu-3 [2]): > 10 µM
relative viability EC50 (Caco-2 [3]): > 10 µM
relative viability EC50 (HepG2 [4]): > 10 µM
relative viability EC50 (Vero E6 [5]): > 10 µM
cell viability (U2OS [6]; 1 nM): 99.5%
cell viability (U2OS [6]; 10 nM): 94.4%
cell viability (U2OS [6]; 100 nM): 97.7%
cell viability (U2OS [6]; 1000 nM): 95.7%
cell viability (U2OS [6]; 10000 nM): 96.9%
cell viability (Calu-3 [7]; 1 nM): 99.5%
cell viability (Calu-3 [7]; 10 nM): 93.9%
cell viability (Calu-3 [7]; 100 nM): 99.5%
cell viability (Calu-3 [7]; 1000 nM): 90.8%
cell viability (Calu-3 [7]; 10000 nM): 102%
cell viability (Caco-2 [8]; 1 nM): 102%
cell viability (Caco-2 [8]; 10 nM): 94.4%
cell viability (Caco-2 [8]; 100 nM): 102%
cell viability (Caco-2 [8]; 1000 nM): 102%
cell viability (Caco-2 [8]; 10000 nM): 102%
cell viability (HepG2 [9]; 1 nM): 92.8%
cell viability (HepG2 [9]; 10 nM): 106%
cell viability (HepG2 [9]; 100 nM): 94.9%
cell viability (HepG2 [9]; 1000 nM): 99.2%
cell viability (HepG2 [9]; 10000 nM): 91.7%
cell viability (Vero E6 [10]; 1 nM): 104%
cell viability (Vero E6 [10]; 10 nM): 109%
cell viability (Vero E6 [10]; 100 nM): 101%
cell viability (Vero E6 [10]; 1000 nM): 99%
cell viability (Vero E6 [10]; 10000 nM): 91.4%
drug sensitivity score (U2OS [11]): 0
drug sensitivity score (Calu-3 [12]): 0
drug sensitivity score (Caco-2 [13]): 0
drug sensitivity score (HepG2 [14]): 0
drug sensitivity score (Vero E6 [15]): 0

CC(C)Oc1ccc(-c2nc(-c3cccc4c3CC[C@H]4NCCC(=O)O)no2)cc1C#N [RP-001]
relative viability EC50 (U2OS [1]): > 10 µM
relative viability EC50 (Calu-3 [2]): > 10 µM
relative viability EC50 (Caco-2 [3]): > 10 µM
relative viability EC50 (HepG2 [4]): > 10 µM
relative viability EC50 (Vero E6 [5]): > 10 µM
cell viability (U2OS [6]; 1 nM): 102%
cell viability (U2OS [6]; 10 nM): 95.1%
cell viability (U2OS [6]; 100 nM): 103%
cell viability (U2OS [6]; 1000 nM): 106%
cell viability (U2OS [6]; 10000 nM): 112%
cell viability (Calu-3 [7]; 1 nM): 95.9%
cell viability (Calu-3 [7]; 10 nM): 99.8%
cell viability (Calu-3 [7]; 100 nM): 87.5%
cell viability (Calu-3 [7]; 1000 nM): 101%
cell viability (Calu-3 [7]; 10000 nM): 102%
cell viability (Caco-2 [8]; 1 nM): 95%
cell viability (Caco-2 [8]; 10 nM): 94.7%
cell viability (Caco-2 [8]; 100 nM): 94.1%
cell viability (Caco-2 [8]; 1000 nM): 95.7%
cell viability (Caco-2 [8]; 10000 nM): 98.2%
cell viability (HepG2 [9]; 1 nM): 96.9%
cell viability (HepG2 [9]; 10 nM): 97.6%
cell viability (HepG2 [9]; 100 nM): 94.2%
cell viability (HepG2 [9]; 1000 nM): 104%
cell viability (HepG2 [9]; 10000 nM): 110%
cell viability (Vero E6 [10]; 1 nM): 95%
cell viability (Vero E6 [10]; 10 nM): 97.7%
cell viability (Vero E6 [10]; 100 nM): 90.2%
cell viability (Vero E6 [10]; 1000 nM): 101%
cell viability (Vero E6 [10]; 10000 nM): 104%
drug sensitivity score (U2OS [11]): 0
drug sensitivity score (Calu-3 [12]): 0
drug sensitivity score (Caco-2 [13]): 0
drug sensitivity score (HepG2 [14]): 0
drug sensitivity score (Vero E6 [15]): 0

O=c1ncccn1[C@@H]1O[C@H](CO)[C@@H](O)[C@H]1O [zebularine]
relative viability EC50 (U2OS [1]): > 10 µM
relative viability EC50 (Calu-3 [2]): > 10 µM
relative viability EC50 (Caco-2 [3]): > 10 µM
relative viability EC50 (HepG2 [4]): > 10 µM
relative viability EC50 (Vero E6 [5]): > 10 µM
cell viability (U2OS [6]; 1 nM): 97.8%
cell viability (U2OS [6]; 10 nM): 99.2%
cell viability (U2OS [6]; 100 nM): 96.8%
cell viability (U2OS [6]; 1000 nM): 101%
cell viability (U2OS [6]; 10000 nM): 92.6%
cell viability (Calu-3 [7]; 1 nM): 94.4%
cell viability (Calu-3 [7]; 10 nM): 102%
cell viability (Calu-3 [7]; 100 nM): 85.9%
cell viability (Calu-3 [7]; 1000 nM): 96.7%
cell viability (Calu-3 [7]; 10000 nM): 84.4%
cell viability (Caco-2 [8]; 1 nM): 103%
cell viability (Caco-2 [8]; 10 nM): 102%
cell viability (Caco-2 [8]; 100 nM): 104%
cell viability (Caco-2 [8]; 1000 nM): 97.9%
cell viability (Caco-2 [8]; 10000 nM): 101%
cell viability (HepG2 [9]; 1 nM): 113%
cell viability (HepG2 [9]; 10 nM): 97.5%
cell viability (HepG2 [9]; 100 nM): 111%
cell viability (HepG2 [9]; 1000 nM): 101%
cell viability (HepG2 [9]; 10000 nM): 103%
cell viability (Vero E6 [10]; 1 nM): 99.6%
cell viability (Vero E6 [10]; 10 nM): 99.1%
cell viability (Vero E6 [10]; 100 nM): 102%
cell viability (Vero E6 [10]; 1000 nM): 97.9%
cell viability (Vero E6 [10]; 10000 nM): 99.1%
drug sensitivity score (U2OS [11]): 0
drug sensitivity score (Calu-3 [12]): 0.3
drug sensitivity score (Caco-2 [13]): 0
drug sensitivity score (HepG2 [14]): 0
drug sensitivity score (Vero E6 [15]): 0

CCCNC(C)(C)COC(=O)c1ccccc1 [meprylcaine]
relative viability EC50 (U2OS [1]): > 10 µM
relative viability EC50 (Calu-3 [2]): > 10 µM
relative viability EC50 (Caco-2 [3]): > 10 µM
relative viability EC50 (HepG2 [4]): > 10 µM
relative viability EC50 (Vero E6 [5]): > 10 µM
cell viability (U2OS [6]; 1 nM): 98.6%
cell viability (U2OS [6]; 10 nM): 98.2%
cell viability (U2OS [6]; 100 nM): 103%
cell viability (U2OS [6]; 1000 nM): 97.7%
cell viability (U2OS [6]; 10000 nM): 99.5%
cell viability (Calu-3 [7]; 1 nM): 102%
cell viability (Calu-3 [7]; 10 nM): 112%
cell viability (Calu-3 [7]; 100 nM): 105%
cell viability (Calu-3 [7]; 1000 nM): 99.9%
cell viability (Calu-3 [7]; 10000 nM): 94.5%
cell viability (Caco-2 [8]; 1 nM): 98.1%
cell viability (Caco-2 [8]; 10 nM): 104%
cell viability (Caco-2 [8]; 100 nM): 94.3%
cell viability (Caco-2 [8]; 1000 nM): 106%
cell viability (Caco-2 [8]; 10000 nM): 96.6%
cell viability (HepG2 [9]; 1 nM): 86.3%
cell viability (HepG2 [9]; 10 nM): 100%
cell viability (HepG2 [9]; 100 nM): 94%
cell viability (HepG2 [9]; 1000 nM): 95.6%
cell viability (HepG2 [9]; 10000 nM): 91.9%
cell viability (Vero E6 [10]; 1 nM): 96%
cell viability (Vero E6 [10]; 10 nM): 103%
cell viability (Vero E6 [10]; 100 nM): 91.8%
cell viability (Vero E6 [10]; 1000 nM): 95.2%
cell viability (Vero E6 [10]; 10000 nM): 103%
drug sensitivity score (U2OS [11]): 0
drug sensitivity score (Calu-3 [12]): 0
drug sensitivity score (Caco-2 [13]): 0
drug sensitivity score (HepG2 [14]): 0
drug sensitivity score (Vero E6 [15]): 0

From the supplement of paper PMC13380429
